Source: PMC5460155 (ACS chemical neuroscience, 2017)
Positions count from the first letter of the chain named. “Also recorded” adds a separate entry of the source.

Tests used:
[1] = system: 68 GPCRs, ion channels, and transporters; assay: Eurofin Lead Profiling radioligand binding panel; conditions: 10 μM, 68 targets
mice [2] = assay: Modified Irwin Toxicology Battery; type: in vivo; conditions: 100 mg/kg i.p.
mice [3] = assay: Amphetamine-induced hyperlocomotion in mice; type: in vivo, mouse; conditions: 1–10 mg/kg i.p., amphetamine 3 mg/kg s.c.
rats = assay: Novel object recognition task; type: in vivo, rat; conditions: rats, 1, 3, and 10 mg/kg i.p., 30 min pretreatment, assessed 24 h later
[4] = Mouse brain concentrations after i.p. dosing; type: in vivo; conditions: 100 mg/kg i.p., mice
M1 [5] = target: T1, M1 (Homo sapiens, UniProt P11229); assay: Discover X bias panel: M1 receptor internalization; type: cell-based
T1 sequence (P11229 1-460): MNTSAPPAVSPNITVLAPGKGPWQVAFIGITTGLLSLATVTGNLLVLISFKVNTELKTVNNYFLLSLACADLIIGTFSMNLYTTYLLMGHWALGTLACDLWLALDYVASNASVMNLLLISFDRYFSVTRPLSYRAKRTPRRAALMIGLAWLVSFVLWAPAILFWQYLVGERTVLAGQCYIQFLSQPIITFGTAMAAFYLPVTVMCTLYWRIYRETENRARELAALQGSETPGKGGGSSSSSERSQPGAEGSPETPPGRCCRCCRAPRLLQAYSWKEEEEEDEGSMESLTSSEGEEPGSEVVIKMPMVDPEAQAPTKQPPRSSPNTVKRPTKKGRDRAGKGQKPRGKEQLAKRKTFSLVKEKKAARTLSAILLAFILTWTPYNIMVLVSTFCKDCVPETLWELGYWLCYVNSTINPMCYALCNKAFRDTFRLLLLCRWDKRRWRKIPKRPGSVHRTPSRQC

mouse M1 [6] = target: T2, mouse M1 (Mus musculus, UniProt P12657); assay: Mouse M1 agonist activity, calcium mobilization; type: cell-based
T2 sequence (P12657 1-460): T1 sequence (P11229 1-460) with A5V, T254S, R320K, A337G, I413V

M1 [7] = target: T1, M1; assay: Calcium mobilization, hM1-CHO cells, agonist mode; type: cell-based
M1 [8] = target: T1, M1; assay: Discover X bias panel: β-arrestin recruitment assay; type: cell-based
hM1 = target: T3, hM1 (Homo sapiens, UniProt P11229); assay: Acetylcholine affinity shift at hM1; type: binding
T3 sequence (P11229 1-460): T1 sequence (P11229 1-460)

M1 [9] = target: T1, M1; assay: [3H]-NMS competition binding, human M1 membranes
M1 [10] = target: T1, M1; assay: Calcium mobilization, hM1-CHO cells, PAM mode; type: cell-based
C57Bl/6 mice [11] = assay: Spontaneous locomotor activity; type: in vivo, mouse; conditions: 1–10 mg/kg i.p.
rat M1 [12] = target: T4, rat M1 (Rattus norvegicus, UniProt P08482); assay: Calcium mobilization, rM1-CHO cells, agonist mode; type: cell-based
T4 sequence (P08482 1-460): T1 sequence (P11229 1-460) with A5V, T254S, P309S, R320K, A337G, I413V

SD rats = assay: Amphetamine-induced hyperlocomotion in rats; type: in vivo, rat; conditions: 30 mg/kg i.p., amphetamine 1 mg/kg s.c.
rat M1 [13] = target: T4, rat M1; assay: Calcium mobilization, rM1-CHO cells, PAM mode; type: cell-based; conditions: EC20 acetylcholine
C57Bl/6 mice [14] = assay: Behavioral convulsions, modified Racine scale; type: in vivo, mouse; conditions: 100 mg/kg i.p., 3 h, modified Racine scale (0–5)
[15] = Mouse brain:plasma partition, discrete i.p. dose; conditions: male, C57BL/6J, in vivo, ip, 10 mg/kg
mouse M1 [16] = target: T2, mouse M1; assay: Calcium mobilization, mM1-CHO cells, PAM mode; type: cell-based
mice [17] = conditions: cited from earlier work

## Cn1cc(-c2ccc(Cn3cc(C(=O)N[C@H]4CCCC[C@@H]4O)c4c(F)cc(F)cc43)cn2)cn1 [Compound 28a, 4,6-Difluoro-N-(1S,2S)-2-hydroxycyclohexyl-1-((6-(1-methyl-1H-pyrazol-4-yl)pyridine-3-yl)methyl)-1H-indole-3-carboxamide]
[1]
  percent inhibition in ancillary pharmacology panel: ≤ 50%
Mice [2]; 100 mg/kg
  adverse effects, Modified Irwin Toxicology Battery: no pronounced cholinergic effects
Mice [2]; listed as VU6004256, 100 mg/kg
  adverse effects, Modified Irwin Toxicology Battery: did not cause significant observable adverse effects
Mice [3]
  reversal of amphetamine-induced hyperlocomotion (AHL): did not reverse AHL in mice
rats
  recognition memory, novel object recognition: dose-dependently enhanced recognition memory
[4]
  total maximum brain concentration: 49.9 µM
  unbound maximum brain concentration: 649 nM
M1 [5]
  EC50: > 10000 nM
Mouse M1 [6]
  EC50: 450 nM
Mouse M1 [6]; agonist activity at mouse M1
  mouse M1 agonist % ACh Max: 86%
M1 [7]; hM1-CHO cells, ± SEM
  hACh Max (%), agonist: 56 ± 14%
M1 [7]; hM1 EC50 (μM), agonist, hM1-CHO cells
  EC50: 4.8 µM
M1 [7]; hM1 pEC50, agonist, hM1-CHO cells, ± SEM
  EC50: 4.68 µM
M1 [7]; human and rat M1
  fold weaker M1 agonist than 16: 7 fold
M1 [8]
  M1 PAM potency and efficacy in β-arrestin recruitment: comparable M1 PAM potency and efficacy
hM1; 0.3 μM PAM
  fold shift in ACh potency vs DMSO control: 11 fold
hM1; 1.0 μM PAM
  fold shift in ACh potency vs DMSO control: 58 fold
hM1; 10 μM PAM
  fold shift in ACh potency vs DMSO control: 178 fold
M1 [9]
  displacement of orthosteric radioligand [3H]-NMS: slight inhibition of binding of the orthosteric radioligand at high concentrations; also recorded: weakly displaced
M1 [10]
  EC50: 214 nM
M1 [10]; PAM mode, hM1-CHO cells, EC20 acetylcholine, ± SEM
  hACh Max (%): 86±1%
C57Bl/6 mice [11]
  effect on spontaneous (basal) locomotor activity: significantly less effect on spontaneous locomotor activity
C57Bl/6 mice [11]; listed as VU6004256
  effect on spontaneous (basal) locomotor activity: decreased locomotor activity at the highest dose of 10 mg/kg
Rat M1 [12]
  EC50: 3980 nM
Rat M1 [12]; agonist mode, rM1-CHO cells, ± SEM
  rACh Max (%), agonist: 68 ± 9%
SD rats
  reversal of amphetamine-induced hyperlocomotion (AHL): no effect
Rat M1 [13]; PAM mode, ± SEM
  rACh Max (%): 92 ± 4%
Rat M1 [13]; rM1 EC50 (nM), PAM mode
  EC50: 141 nM
Rat M1 [13]; rM1 pEC50, PAM mode, ± SEM
  EC50: 138 nM
C57Bl/6 mice [14]
  behavioral convulsions: did not display observable behavioral seizure activity; also recorded: neither difluoro indole 28a nor 28c (both regioisomeric N-Me pyrazoles) induced behavioral convulsions
[15]
  Kp at 0.25 h: 4.84
  Kp uu at 0.25 h: 2.61
Mouse M1 [16]
  EC50: 155 nM
Mouse M1 [16]; PAM mode, mM1-CHO cells, EC20 acetylcholine, ± SEM
  mACh Max (%): 79 ± 1%

## CCCCCCOc1nsnc1C1=CCCN(C)C1 [xanomeline]
Mice [17]
  attenuation of amphetamine-induced activity in M4 knockout mice: absent
